According to patent US20040022870A1, “Immunogenic TLP composition” (priority 1996, published 2004):
Where a SMILES comes first, the peptide text is derived from it.

Key:
[1] = system: cytotoxic CD8 lymphocytes; assay: Stimulation of cytotoxic CD8 lymphocytes by synthetic polypeptide; format: cell-based, human; conditions: only in patients suffering from NSCLC neoplasia
[2] = system: TLP antigen on primary NSCLC culture cells; assay: Induction of TLP antigen expression on tumor cells by chemotherapy in vitro; format: cell-based, human; conditions: 10:g/ml for 48 hours; for TLP status of TLP-positive cell population after treatment: etoposide and cis-platinum
Source text: The cells were processed fresh and after preparation of primary cultures (complete RPMI 1640 culture medium with the addition of FCS 10%).
Along with variation in TLP, other possible phenotype modifications (IL-2 rec (interleukin receptors), HLA-Dr (human leukocyte antigen), CD16 (lymphocyte sub-populations), etc.) induced by treatment with single or combined agents (chemotherapy, cytokines) were also studied.
In the case of TLP, freshly isolated tumor cells were obtained from a surgical NSCLC patient. After plating for 24 h and separation of fibroblasts, cells were resuspended for immunohistochemistry and cytofluorimetric assay. Briefly, CSH 419 antiserum was labeled with PE conjugated anti-rabbit IgG and incubated with the cells.
The freeing of TLP in the culture supernatant was checked using the ELISA test.

CC[C@H](C)[C@H](NC(=O)[C@H](CO)NC(=O)[C@H](C)NC(=O)[C@H](CCC(=O)O)NC(=O)[C@H](CCCCN)NC(=O)[C@H](CC(N)=O)NC(=O)[C@@H](NC(=O)[C@@H](N)CCCNC(=N)N)[C@@H](C)O)C(=O)O [SEQ ID NO: 1, ArgThrAsnLysGluAlaSerIle] (H-RTNKEASI-OH; N-terminus and C-terminus assumed)
stimulation of cytotoxic CD8 lymphocytes [1]: specific stimulation of the cytotoxic CD8 lymphocytes

COc1cc([C@@H]2c3cc4c(cc3[C@@H](O[C@@H]3O[C@@H]5CO[C@@H](C)O[C@H]5[C@H](O)[C@H]3O)[C@H]3COC(=O)[C@H]23)OCO4)cc(OC)c1O [etoposide]
TLP status of TLP-negative cell population after treatment [2]: became TLP-positive | TLP status of TLP-positive cell population after treatment [2]: remained TLP positive

N.N.[Cl][Pt][Cl] [cis-platinum]
TLP status of TLP-negative cell population after treatment [2]: became TLP-positive | TLP status of TLP-positive cell population after treatment [2]: remained TLP positive
